Results as given in ChEMBL document CHEMBL1124186, “Synthesis and evaluation of tylosin-related macrolides modified at the aldehyde function: a new series of orally effective antibiotics” (1988).
≈ marks a conversion by molar mass, not a printed value.

How the values were obtained:
Haemophilus influenzae = assay: In vitro antimicrobial activity against Haemophilus influenzae.; type: functional
Staphylococcus aureus = assay: In vitro antimicrobial activity against Staphylococcus aureus X1; type: functional
Streptococcus pyogenes [1] = assay: In vivo effective dose against experimental infections in rodent caused by Streptococcus pyogenes C203 when administered sc; type: functional
Streptococcus pneumoniae = assay: In vitro antimicrobial activity against Streptococcus pneumoniae; type: functional
[2] = system: Staphylococcus epidermidis; assay: In vitro antimicrobial activity against Staphylococcus epidermidis EPI1; type: functional
Enterococcus faecium = assay: In vitro antimicrobial activity against Streptococcus faecium X66; type: functional, streptococcus fae-cium
Streptococcus pyogenes [3] = assay: In vitro antimicrobial activity against Streptococcus pyogenes C203; type: functional
Streptococcus pyogenes [4] = assay: In vivo effective dose against experimental infections in rodent caused by Streptococcus pyogenes C203 when administered orally; type: functional; details: po

Row | SMILES | MIC (Haemophilus influenzae) [µg/mL] | MIC (Staphylococcus aureus) [µg/mL] | MIC (Streptococcus pneumoniae) [µg/mL] | MIC [2] [µg/mL] | MIC (Enterococcus faecium) [µg/mL] | MIC (Streptococcus pyogenes [3]) [µg/mL] | ED50 (Streptococcus pyogenes [1]) [mg/kg] | ED50 (Streptococcus pyogenes [4]) [mg/kg]
1 | CC[C@H]1OC(=O)C[C@@H](O)[C@H](C)[C@@H](O[C@@H]2O[C@H](C)[C@@H](O)[C@H](N(C)C)[C@H]2O)[C@@H](CCN2CCCCCCC2)C[C@@H](C)C(=O)/C=C/C(C)=C/[C@@H]1CO[C@@H]1O[C@H](C)[C@@H](O)[C@@H](O)[C@H]1OC | 32 (≈ 37.4 µM) | 1 (≈ 1.17 µM) | 0.5 (≈ 0.585 µM) | 1 (≈ 1.17 µM) | 16 (≈ 18.7 µM) | 0.5 (≈ 0.585 µM) | 1.8 | 100
2 | CC[C@H]1OC(=O)C[C@@H](O)[C@H](C)[C@@H](O[C@@H]2O[C@H](C)[C@@H](O)[C@H](N(C)C)[C@H]2O)[C@@H](CCOc2ncnc3ccccc23)C[C@@H](C)C(=O)/C=C/C(C)=C/[C@@H]1CO[C@@H]1O[C@H](C)[C@@H](O)[C@@H](OC)[C@H]1OC | 16 (≈ 17.7 µM) | 0.25 (≈ 0.277 µM) | 0.5 (≈ 0.554 µM) | 0.25 (≈ 0.277 µM) | 4 (≈ 4.43 µM) | 0.5 (≈ 0.554 µM) | 5.4 | > 50
3 | CC[C@H]1OC(=O)C[C@@H](O)[C@H](C)[C@@H](O[C@@H]2O[C@H](C)[C@@H](O)[C@H](N(C)C)[C@H]2O)[C@@H](CCOc2ccc(CO)cc2)C[C@@H](C)C(=O)/C=C/C(C)=C/[C@@H]1CO[C@@H]1O[C@H](C)[C@@H](O)[C@@H](OC)[C@H]1OC | 64 (≈ 72.7 µM) | 0.5 (≈ 0.568 µM) | 2 (≈ 2.27 µM) | 0.5 (≈ 0.568 µM) | 16 (≈ 18.2 µM) | 0.5 (≈ 0.568 µM) | 5 | 44
4 | CC[C@H]1OC(=O)C[C@@H](O)[C@H](C)[C@@H](O[C@@H]2O[C@H](C)[C@@H](O[C@H]3C[C@@](C)(O)[C@@H](O)[C@H](C)O3)[C@H](N(C)C)[C@H]2O)[C@@H](CCSc2nnnn2C)C[C@@H](C)C(=O)/C=C/C(C)=C/[C@@H]1CO[C@@H]1O[C@H](C)[C@@H](O)[C@@H](OC)[C@H]1OC | > 128 | 0.5 (≈ 0.492 µM) | 32 (≈ 31.5 µM) | 1 (≈ 0.984 µM) | 128 (≈ 126 µM) | 1 (≈ 0.984 µM) | > 6.3 | 
5 | CC[C@H]1OC(=O)C[C@@H](O)[C@H](C)[C@@H](O[C@@H]2O[C@H](C)[C@@H](O)[C@H](N(C)C)[C@H]2O)[C@@H](CCOc2ccc([N+](=O)[O-])cc2)C[C@@H](C)C(=O)/C=C/C(C)=C/[C@@H]1CO[C@@H]1O[C@H](C)[C@@H](O)[C@@H](OC)[C@H]1OC | 16 (≈ 17.9 µM) | 0.5 (≈ 0.559 µM) | 1 (≈ 1.12 µM) | 0.5 (≈ 0.559 µM) | 4 (≈ 4.47 µM) | 1 (≈ 1.12 µM) |  | 5
6 | CC[C@H]1OC(=O)C[C@@H](O)[C@H](C)[C@@H](O[C@@H]2O[C@H](C)[C@@H](O[C@H]3C[C@@](C)(O)[C@@H](O)[C@H](C)O3)[C@H](N(C)C)[C@H]2O)[C@@H](CCN=[N+]=[N-])C[C@@H](C)C(=O)/C=C/C(C)=C/[C@@H]1CO[C@@H]1O[C@H](C)[C@@H](O)[C@@H](OC)[C@H]1OC | > 128 | 2 (≈ 2.12 µM) | 32 (≈ 33.9 µM) | 1 (≈ 1.06 µM) | 128 (≈ 136 µM) | 2 (≈ 2.12 µM) | 6.3 | 
7 | CCOC(=O)c1ccc(OCC[C@H]2C[C@@H](C)C(=O)/C=C/C(C)=C/[C@H](CO[C@@H]3O[C@H](C)[C@@H](O)[C@@H](OC)[C@H]3OC)[C@@H](CC)OC(=O)C[C@@H](O)[C@H](C)[C@H]2O[C@@H]2O[C@H](C)[C@@H](O)[C@H](N(C)C)[C@H]2O)cc1 |  | 0.5 (≈ 0.542 µM) | 1 (≈ 1.08 µM) | 0.5 (≈ 0.542 µM) | 8 (≈ 8.68 µM) | 0.5 (≈ 0.542 µM) | > 10 | 

Now from value to molecule, other results behind:

Row | MIC (Haemophilus influenzae) [µg/mL] | MIC (Staphylococcus aureus) [µg/mL] | MIC (Streptococcus pneumoniae) [µg/mL] | MIC [2] [µg/mL] | MIC (Enterococcus faecium) [µg/mL] | MIC (Streptococcus pyogenes [3]) [µg/mL] | SMILES | ED50 (Streptococcus pyogenes [1]) [mg/kg] | ED50 (Streptococcus pyogenes [4]) [mg/kg]
8 |  | 0.5 (≈ 0.635 µM) | 4 (≈ 5.08 µM) | 0.5 (≈ 0.635 µM) | 16 (≈ 20.3 µM) | 0.5 (≈ 0.635 µM) | CC[C@H]1OC(=O)C[C@@H](O)[C@H](C)[C@@H](O[C@@H]2O[C@H](C)[C@@H](O)[C@H](N(C)C)[C@H]2O)[C@@H](CCOC)C[C@@H](C)C(=O)/C=C/C(C)=C/[C@@H]1CO[C@@H]1O[C@H](C)[C@@H](O)[C@@H](OC)[C@H]1OC | > 6.3 | 
9 | 128 (≈ 166 µM) | 4 (≈ 5.17 µM) | 32 (≈ 41.4 µM) | 8 (≈ 10.3 µM) | 128 (≈ 166 µM) | 32 (≈ 41.4 µM) | CC[C@H]1OC(=O)C[C@@H](O)[C@H](C)[C@@H](O[C@@H]2O[C@H](C)[C@@H](O)[C@H](N(C)C)[C@H]2O)[C@@H](CCN)C[C@@H](C)C(=O)/C=C/C(C)=C/[C@@H]1CO[C@@H]1O[C@H](C)[C@@H](O)[C@@H](OC)[C@H]1OC | > 10 | > 100
10 | 64 (≈ 69.3 µM) | 0.5 (≈ 0.541 µM) | 4 (≈ 4.33 µM) | 0.5 (≈ 0.541 µM) | 32 (≈ 34.6 µM) | 0.5 (≈ 0.541 µM) | CC[C@H]1OC(=O)C[C@@H](O)[C@H](C)[C@@H](O[C@@H]2O[C@H](C)[C@@H](O)[C@H](N(C)C)[C@H]2O)[C@@H](CCOC(C(F)(F)F)C(F)(F)F)C[C@@H](C)C(=O)/C=C/C(C)=C/[C@@H]1CO[C@@H]1O[C@H](C)[C@@H](O)[C@@H](OC)[C@H]1OC | > 10 | 
11 |  | 0.5 (≈ 0.573 µM) | 2 (≈ 2.29 µM) | 0.25 (≈ 0.287 µM) | 16 (≈ 18.3 µM) | 0.25 (≈ 0.287 µM) | CC[C@H]1OC(=O)C[C@@H](O)[C@H](C)[C@@H](O[C@@H]2O[C@H](C)[C@@H](O)[C@H](N(C)C)[C@H]2O)[C@@H](CCSc2nnnn2C)C[C@@H](C)C(=O)/C=C/C(C)=C/[C@@H]1CO[C@@H]1O[C@H](C)[C@@H](O)[C@@H](OC)[C@H]1OC |  | 50
